From patent US10710984B2, “N-[(Pyrimidinylamino)propanyl]-and N-[(Pyridinylamino)-propanyl]arylcarboxamides” (Boehringer Ingelheim International GmbH, priority 2016, dated 2020)

What was measured:
[1] = target: T1, human MDR1 P-gp (Homo sapiens, UniProt P08183); assay: Assay C: efflux in MDCK cells transfected with the human MDR1 gene; format: in vitro ADME; conditions: MDCK-MDR1 cell monolayers, pH 7.4, 37° C., read-out: MDCK efflux ratio (BA/AB)
T1 construct: expressed in transfected cells; host or cells: MDCK (MDCK-MDR1)
Procedure: C. Assessment of Efflux in Madin-Darby Canine Kidney (MDCK) Cells Transfected with the Human MDR1 Gene
Apparent permeability coefficients (PE) of the compounds across the MDCK-MDR1 cell monolayers are measured (pH 7.4, 37° C.) in apical-to-basal (AB) and basal-to-apical (BA) transport direction. AB permeability (PEAB) represents drug absorption from the blood into the brain and BA permeability (PEBA) drug efflux from the brain back into the blood via both passive permeability as well as active transport mechanisms mediated by efflux and uptake transporters that are expressed on the MDCK-MDR1 cells, predominantly by the overexpressed human MDR1 P-gp. The compounds are assigned to permeability/absorption classes by comparison of the AB permeabilities with the AB permeabilities of reference compounds with known in vitro permeability and oral absorption in the human. Identical or similar permeabilities in both transport directions indicate passive permeation, vectorial permeability points to additional active transport mechanisms. Higher PEBA than PEAB indicates the involvement of active efflux mediated by MDR1 P-gp. Active transport is concentration-dependently saturable.
MDCK-MDR1 cells (1-2×10e5 cells/1 cm2 area) are seeded on filter inserts (Costar transwell polycarbonate or PET filters, 0.4 μm pore size) and cultured (DMEM) for 7 days. Subsequently, the MDR1 expression is boosted by culturing the cells with 5 mM sodium butyrate in full medium for 2 days. Compounds are dissolved in appropriate solvent (like DMSO, 1-20 mM stock solutions). Stock solutions are diluted with HTP-4 buffer (128.13 mM NaCl, 5.36 mM KCl, 1 mM MgSO4, 1.8 mM CaCl2, 4.17 mM NaHCO3, 1.19 mM Na2HPO4×7H2O, 0.41 mM NaH2PO4—H2O, 15 mM HEPES, 20 mM glucose, 0.25% BSA, pH 7.4) to prepare the transport solutions (0.1-300 μM compound, final DMSO<=0.5%). The transport solution (TL) is applied to the apical or basolateral donor side for measuring A-B or B-A permeability (3 filter replicates), respectively. The receiver side contains the same buffer as the donor side. Samples are collected at the start and end of experiment from the donor and at various time intervals for up to 2 hours also from the receiver side for concentration measurement by H PLC-MS/MS or scintillation counting. Sampled receiver volumes are replaced with fresh receiver solution.

[2] = target: T2, human Orexin 1 receptor (Homo sapiens, UniProt O43613); assay: Assay A: in vitro testing of OX1R potency, OX1R IP1; format: cell-based; conditions: for Kb: Table 4a, 50 nM Orexin A
T2 construct: CHO-K1 cells stably expressing the full-length human Orexin 1 receptor and the aequorin photoprotein; expressed in transfected cells; host or cells: CHO-K1 (CHO-K1/hOx1)
T2 sequence (O43613 1-425): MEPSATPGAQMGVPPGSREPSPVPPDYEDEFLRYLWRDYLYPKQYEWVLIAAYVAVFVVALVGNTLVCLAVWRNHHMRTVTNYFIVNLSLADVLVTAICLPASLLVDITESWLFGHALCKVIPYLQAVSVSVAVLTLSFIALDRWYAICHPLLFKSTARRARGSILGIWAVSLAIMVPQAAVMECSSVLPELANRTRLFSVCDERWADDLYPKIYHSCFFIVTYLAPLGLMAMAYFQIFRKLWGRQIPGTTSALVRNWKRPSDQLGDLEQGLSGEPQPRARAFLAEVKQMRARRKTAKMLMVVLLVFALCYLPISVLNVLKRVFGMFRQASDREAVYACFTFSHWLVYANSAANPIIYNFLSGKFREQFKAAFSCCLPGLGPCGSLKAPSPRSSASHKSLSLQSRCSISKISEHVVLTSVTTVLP

[3] = target: T3, human orexin 2 receptor (Homo sapiens, UniProt O43614); assay: Assay B: in vitro testing of OX2R potency, OX2R IP1; format: cell-based; conditions: Table 4a; 0.5 nM Orexin A
T3 construct: CHO-K1 cells stably expressing the full-length human orexin 2 receptor and the aequorin photoprotein; expressed in transfected cells; host or cells: CHO-K1 (CHO-K1/hOx2)
T3 sequence (O43614 1-444): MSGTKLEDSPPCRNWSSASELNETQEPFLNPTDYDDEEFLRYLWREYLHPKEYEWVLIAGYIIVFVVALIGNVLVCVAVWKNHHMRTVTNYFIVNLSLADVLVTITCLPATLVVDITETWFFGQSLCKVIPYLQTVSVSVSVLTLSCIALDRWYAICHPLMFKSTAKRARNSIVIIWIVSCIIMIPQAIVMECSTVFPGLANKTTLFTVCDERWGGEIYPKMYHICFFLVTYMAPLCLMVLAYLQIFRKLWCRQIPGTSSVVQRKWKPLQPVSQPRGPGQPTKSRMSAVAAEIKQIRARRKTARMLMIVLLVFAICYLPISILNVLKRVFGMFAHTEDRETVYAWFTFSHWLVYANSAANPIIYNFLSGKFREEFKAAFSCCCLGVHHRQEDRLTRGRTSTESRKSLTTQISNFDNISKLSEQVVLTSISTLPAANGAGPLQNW
From the text: Activation of the orexin receptors expressed in cell lines results in an increase in intracellular IP3 concentration. IP1, a downstream metabolite of IP3, accumulates in cells following receptor activation and is stable in the presence of LiCl. Using Homogeneous Time-Resolved Fluorescence technology with Lumi4-Tb cryptate (commercially available from Cisbio Bioassay) and a suitable fluorescence plate reader. […] Chem. Genomics 2009, 3, 22-32. This technique is used to characterize pharmacological modification of the orexin receptors.
B. In Vitro Testing of OX2R Potency: OX2R IP1
IP1 measurements are performed in CHO-K1 cells stably expressing the full-length human orexin 2 receptor and the aequorin photoprotein. Cells are cultivated in Ham's nutrient mixture F12 medium with 10% fetal calf serum, in a 37° C., 95% humidity and 5% CO2 incubator. The CHO-K1/hOx2 cell mass is expanded to larger cell numbers. The cells are obtained as frozen cells in cryo-vials and stored until use at −150° C. The viability of the cells after thawing is >90%. In preparation for the assay, 24 hours before the assay, the cells are thawed at 37° C. and immediately diluted with cell culture medium. After centrifugation, the cell pellet is re-suspended in medium and then distributed into the assay plates with a density of 5000 cells/25 μL per well. The plates are incubated for one hour at room temperature to reduce edge effects before they are incubated for 24 hours at 37° C./5% CO2. Compounds are prepared by a 8-point serial dilution in DMSO and a final dilution step into assay buffer (HBSS with 20 mM HEPES, 0.1% BSA and 50 mM LiCl, pH 7.4) to ensure a final DMSO concentration of 1% in the assay. On the day of the assay, cells in the plate are washed twice with 60 μL assay buffer (20 μL buffer remained in the wells after washing), followed by adding 5 μL per well of compounds diluted in assay buffer. After 15 minutes of incubation at room temperature 5 μL per well of Orexin A peptide (final concentration: 0.5 nM) dissolved in assay buffer is added to the assay plate. The assay plate is incubated for 60 minutes at 37° C. Then 5 μL per well of Anti-IP1-Cryptate Tb solution and 5 μL per well of IP1-d2 dilution are added to all well of the plate and the plate is incubated for a further 60 minutes light protected at room temperature. The emission at 615 nm and 665 nm (Excitation wavelength: 320 nm) are measured using an EnVision reader (PerkinElmer). The ratio between the emission at 665 nm and 615 is calculated by the reader.
8-point four parametric non-linear curve fitting and determination of IC50 values and Hill slopes is performed using a regular analysis software e.g. AssayExplorer (Accelrys). In order to establish an agonist concentration independent parameter, Kb values are calculated using the following equation: IC50/((2+(A/EC50)^n)^1/n−1) (with A=concentration agonist, EC50=EC50 agonist, n=Hill slope agonist) (see P. Leff, I. G. Dougall, Trends Pharmacol. Sci. 1993, 14(4), 110-112).
Kb values from Assay A (OX1R) and Assay B (OX2R) can then provide a selectivity ratio which is independent of the agonist (Orexin A) concentration.

[4] = Assay D: assessment of log P; format: physicochemical
Procedure: The assay was performed following the description by S. F. Donovan and M. C. Pescatore in J. Chromatogr. A 952 (2002) 47-61.

[5] = target: T4, OX2R (Homo sapiens, UniProt O43614); assay: OX2R assay of WO2016/034882, Table 3 (Method B); conditions: read-out: OX2R IC50 (corresponds to pIC50) (converted)
T4 sequence (O43614 1-444): T3 sequence (O43614 1-444)

[6] = target: T5, OX1R (Homo sapiens, UniProt O43613); assay: OX1R assay of WO2016/034882, Table 3 (Method B); conditions: read-out: OX1R IC50 (corresponds to pIC50) (converted)
T5 sequence (O43613 1-425): T2 sequence (O43613 1-425)

T1 sequence (P08183 whole entry): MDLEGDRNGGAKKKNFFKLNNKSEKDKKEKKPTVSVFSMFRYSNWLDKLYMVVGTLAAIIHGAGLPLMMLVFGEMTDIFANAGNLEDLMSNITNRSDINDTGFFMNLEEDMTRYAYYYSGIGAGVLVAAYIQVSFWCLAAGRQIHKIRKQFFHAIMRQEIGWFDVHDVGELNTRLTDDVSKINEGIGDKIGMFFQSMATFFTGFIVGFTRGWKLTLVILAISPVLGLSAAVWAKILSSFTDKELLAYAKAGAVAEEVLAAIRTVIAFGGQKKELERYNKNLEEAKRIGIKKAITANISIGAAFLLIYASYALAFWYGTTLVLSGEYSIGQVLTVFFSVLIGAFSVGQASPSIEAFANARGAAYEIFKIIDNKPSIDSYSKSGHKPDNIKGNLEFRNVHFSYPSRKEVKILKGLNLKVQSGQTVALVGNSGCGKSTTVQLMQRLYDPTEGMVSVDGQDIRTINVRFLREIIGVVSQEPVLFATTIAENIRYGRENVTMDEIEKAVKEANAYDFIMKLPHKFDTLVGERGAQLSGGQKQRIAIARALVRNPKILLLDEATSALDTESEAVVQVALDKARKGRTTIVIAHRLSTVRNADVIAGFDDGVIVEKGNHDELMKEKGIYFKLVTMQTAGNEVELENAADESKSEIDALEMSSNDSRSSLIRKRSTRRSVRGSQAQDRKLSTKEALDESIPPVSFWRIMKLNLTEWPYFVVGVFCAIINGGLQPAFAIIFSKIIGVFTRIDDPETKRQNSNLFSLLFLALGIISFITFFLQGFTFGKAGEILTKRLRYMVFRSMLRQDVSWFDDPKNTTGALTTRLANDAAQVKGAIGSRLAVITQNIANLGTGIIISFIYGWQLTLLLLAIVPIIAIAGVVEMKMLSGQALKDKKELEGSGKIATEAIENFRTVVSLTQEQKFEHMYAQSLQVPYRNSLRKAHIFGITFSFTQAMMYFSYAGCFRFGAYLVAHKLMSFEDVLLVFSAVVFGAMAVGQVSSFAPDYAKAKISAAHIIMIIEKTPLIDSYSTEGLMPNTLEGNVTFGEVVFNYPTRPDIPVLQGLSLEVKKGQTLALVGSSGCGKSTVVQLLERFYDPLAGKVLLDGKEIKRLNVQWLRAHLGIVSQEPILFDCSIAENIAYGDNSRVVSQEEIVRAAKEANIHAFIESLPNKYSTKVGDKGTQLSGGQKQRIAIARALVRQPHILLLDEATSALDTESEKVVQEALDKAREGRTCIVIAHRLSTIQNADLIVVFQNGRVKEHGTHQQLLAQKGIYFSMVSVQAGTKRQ

Structure (SMILES)	efflux ratio [1]	Kb [2] [nM]	Kb [3] [nM]	chromatographic logP [4]	OX2R Kb/OX1R Kb [2]	IC50 [5] [nM]	IC50 [6] [nM]
CCN(C(=O)c1cc(C)ccc1-n1nccn1)[C@@H](C)CNc1ncc(C(F)(F)F)cn1 [Example 2]	< 3	0.011	4.14	2 to 4			
CCN(C(=O)c1cc(C)ccc1-n1nccn1)[C@@H](C)CN(C)c1ncc(C(F)(F)F)cn1 [Example 3]	< 3	0.02	15.2	2 to 4	755		
CCN(C(=O)c1cc(OC)ccc1-n1nccn1)[C@@H](C)CNc1ncc(C(F)(F)F)cn1 [Example 4]	< 3	0.02	14.4	2 to 4			
CCN(C(=O)c1nc(C)sc1-c1ccccc1)[C@@H](C)CNc1ncc(C(F)(F)F)cn1 [Example 6]	< 3	0.013	7.03	2 to 4			
CCN(C(=O)c1ccc(Cl)cc1-n1nccn1)[C@@H](C)CNc1ncc(C(F)(F)F)cn1 [Example 7]	< 3	0.025	23.2	2 to 4			
CCN(C(=O)c1nc(C)sc1-c1ccc(F)cc1)[C@@H](C)CNc1ncc(C(F)(F)F)cn1 [Example 8]	< 3	0.022	7.92	2 to 4			
CCN(C(=O)c1ccc(C)c(C)c1-n1nccn1)[C@@H](C)CNc1ccc(Cl)cn1 [Example 14]	< 3	0.023	22.9				
CCN(C(=O)c1cccc(F)c1-n1nccn1)[C@@H](C)CNc1ccc(C(F)(F)F)cn1 [Example 15]	< 3	0.0044	3.86	2 to 4			
CCN(C(=O)c1cccc(F)c1-n1nccn1)[C@@H](C)CNc1ncc(C(F)(F)F)cc1F [Example 16]	< 3	0.014	7.6	2 to 4			
CCN(C(=O)c1nccc(C(F)(F)F)c1-c1ccn(C)n1)[C@@H](C)COc1ccc(C(F)(F)F)cn1 [Example 19]	< 3	0.114	26.2	2 to 4			
CCN(C(=O)c1ccc(OC)cc1-n1nccn1)[C@@H](C)CNc1ncc(C(F)(F)F)cn1 [Example 20]	< 3	0.091	115	2 to 4			
CC[C@@H](CNc1ccc(C(F)(F)F)cn1)N(CC)C(=O)c1nc(C)ccc1-n1nccn1 [drawing 9]						320	
CC[C@@H](CNc1ncc(C(F)(F)F)cn1)N(C)C(=O)c1nc(C)ccc1-c1ncccn1 [drawing 11]							1.9
CC[C@@H](CNc1ncc(C(F)(F)F)cn1)N(C)C(=O)c1c(F)cccc1-n1nccn1 [drawing 12]						≥ 7950	
